Here are results for 30 compounds from patent US6875761B2 (Eisai Co., Ltd., priority 1997, dated 2005).

Where a name gives a salt, the structure may show the parent alone.

For one test, the target named is T1, serotonin 2 receptor (Rattus norvegicus, UniProt P14842).
T1 construct: To the receptor fraction of the cerebral cortex were added a test compound and 0.3 nM of [^3H] ketanserin; from tissue; host or cells: rat cerebral cortex membrane fraction
The experiment in a line: Binding test on [3H] ketanserin, cerebral cortex receptor fraction. Also on record: species or system SD rats. Particulars: 0.3 nM [3H] ketanserin, 37° C. 15 min, read-out: 5HT2.

For the next test, the target named is T2, serotonin 1A receptor (Rattus norvegicus, UniProt P19327).
T2 construct: To the receptor fraction of the hippocampus were added a test compound and 0.5 nM of [^3H]; 8-hydroxy-dipropylaminotetralin; from tissue; host or cells: rat hippocampus membrane fraction
T2 sequence (P19327 1-422): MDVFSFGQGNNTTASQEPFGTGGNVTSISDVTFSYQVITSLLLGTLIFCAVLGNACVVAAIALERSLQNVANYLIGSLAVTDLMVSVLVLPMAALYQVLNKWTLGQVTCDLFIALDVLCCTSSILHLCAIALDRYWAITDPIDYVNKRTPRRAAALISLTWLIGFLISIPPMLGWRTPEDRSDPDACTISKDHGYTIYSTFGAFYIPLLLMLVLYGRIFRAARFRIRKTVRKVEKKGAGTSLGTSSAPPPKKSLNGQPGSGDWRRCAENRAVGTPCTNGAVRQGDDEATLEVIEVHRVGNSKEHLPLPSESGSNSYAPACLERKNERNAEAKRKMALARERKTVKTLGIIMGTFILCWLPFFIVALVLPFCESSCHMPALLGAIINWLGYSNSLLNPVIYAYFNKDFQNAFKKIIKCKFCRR
The test can be described thus: Binding test on [3H] 8-hydroxy-dipropylaminotetralin, hippocampus receptor fraction. Set-up: species or system SD rats. Particulars: rat hippocampus receptor fraction, 0.5 nM [3H] 8-OH-DPAT, room temperature 30 min; read-out: 5HT1.

T1 sequence (P14842 whole entry): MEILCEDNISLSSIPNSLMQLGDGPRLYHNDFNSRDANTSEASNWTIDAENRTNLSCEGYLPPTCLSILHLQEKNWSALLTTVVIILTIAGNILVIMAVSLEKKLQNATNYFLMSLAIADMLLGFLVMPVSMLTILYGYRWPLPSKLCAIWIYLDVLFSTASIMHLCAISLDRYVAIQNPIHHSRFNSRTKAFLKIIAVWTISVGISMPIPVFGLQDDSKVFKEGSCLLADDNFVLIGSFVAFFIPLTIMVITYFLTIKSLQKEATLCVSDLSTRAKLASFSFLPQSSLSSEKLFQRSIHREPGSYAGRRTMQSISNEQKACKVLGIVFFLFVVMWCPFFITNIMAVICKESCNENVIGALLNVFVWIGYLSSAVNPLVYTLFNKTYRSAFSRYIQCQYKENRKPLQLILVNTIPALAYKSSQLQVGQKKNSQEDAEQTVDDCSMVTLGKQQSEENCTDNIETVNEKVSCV

`CCN1CCN(c2nc(-c3ccc(CCCF)cn3)cc3ccccc23)CC1` [Example 132, 1-(1-Ethylpiperazin-4-yl)-3-[5-(3-Fluoropropyl)Pyridin-2-yl)Isoquinoline]: the Ki is 23.4 nM on serotonin 2 receptor and 1.5 nM on serotonin 1A receptor.
The like results for `CCN1CCN(c2nc(-c3ccc(CCC(C)O)nc3)cc3ccccc23)CC1` (stereo not drawn) [Example 136, 1-(1-Ethylpiperazin-4-yl)-3-[2-(3-Hydroxybutyl)Pyridin-5-yl]Isoquinoline] were, in that order, 11.6 nM and 3.7 nM.
For the compound `CCN1CCN(c2nc(-c3ccc(C(O)CC(C)(C)O)cc3)cc3ccccc23)CC1` (stereo not drawn) [Example 25, 3-[4-(1,3-dihydroxy-3-methylbutyl)phenyl]-1-(4-ethylpiperazin-1-yl)isoquinoline], the Ki amounted to 3.4 nM at serotonin 2 receptor and 21.5 nM on serotonin 1A receptor.
The like results for `CCN1CCN(c2nc(-c3ccc(O[C@H](C)CO)cc3)cc3ccoc23)CC1` [Example 302, 7-(1-ethylpiperazin-4-yl)-5-{4-[(R)-2-hydroxy-1-methylethoxy]phenyl}furo[2,3-c]pyridine dihydrochloride] were, in that order, 30 nM and 0.53 nM.
The corresponding values for `CCN1CCN(c2nc(-c3ccc(S(=O)(=O)CCCO)cc3)cc3ccccc23)CC1` [Example 352, 1-(4-ethylpiperazin-1-yl)-3-[4-(3-hydroxypropyl)sulfonylphenyl]isoquinoline dihydrochloride] are 54.6 nM and 4 nM.
The like results for `CCN1CCN(c2nc(-c3ccc(CC(C)O)cc3)cc3ccsc23)CC1` (stereo not drawn) [Example 436, 7-(4-ethylpiperazin-1-yl)-5-[4-(2-hydroxypropyl)phenyl]thieno[2,3-c]pyridine dihydrochloride] were, in that order, 26 nM and 8.64 nM.
As to `CCN1CCN(c2nc(-c3ccc(N4CCC5(CC4)OCCO5)cc3)cc3ccccc23)CC1` [Example 96, 3-[4-(4,4-Ethylenedioxypiperidin-1-yl)phenyl]-1-(4-ethylpiperazin-1-yl)isoquinoline], the Ki was found to be 0.1 nM at serotonin 2 receptor and 138 nM at serotonin 1A receptor.
Consider `CCCS(=O)(=O)NCc1ccc(-c2cc3ccccc3c(N3CCN(CC)CC3)n2)cc1Cl` [Example 92, 3-(3-Chloro-4-propylsulfonylaminomethylphenyl)-1-(4-ethylpiperazin-1-yl)isoquinoline Hydrochloride], for which the Ki on serotonin 2 receptor turned out to be 0.7 nM; on serotonin 1A receptor, 0.9 nM.
Consider `CCNC(=O)c1ccc(-c2cc3ccsc3c(N3CCN(CC)CC3)n2)cc1` [Example 448, 7-(4-ethylpiperazin-1-yl)-5-[4-(N-ethylcarbamoyl)phenyl]thieno[2,3-c]pyridine dihydrochloride], for which the Ki on serotonin 2 receptor worked out at 346 nM; at serotonin 1A receptor, 22.6 nM.
The like results for `COc1ccc(-c2cc3ccsc3c(N3CCN(CCO)CC3)n2)cc1` [Example 276, 5-(4-methoxyphenyl)-7-[4-(2-hydroxyethyl)piperazin-1-yl]thieno[2,3-c]pyridine hydrochloride] were, in that order, 0.45 nM and 160 nM.
In the case of `CCN1CCN(c2nc(/C=C(\C)c3ccc(N4CCOCC4)cc3)cc3ccccc23)CC1` [Example 206, 3-{(E)-2-Methyl-2-[4-(4-Morpholinyl)Phenyl]Ethenyl}-1-(4-Ethylpiperazin-1-Yl)Isoquinoline Oxalate], the Ki worked out at 2.59 nM at serotonin 2 receptor and 77.1 nM at serotonin 1A receptor.
For `CCN1CCN(c2nc(/C=C/c3ccccn3)cc3ccccc23)CC1` [Example 209, 1-(1-Ethylpiperazin-4-Yl)-3-[Trans-2-(2-Pyridyl)Ethenyl]Isoquinoline Trihydrochloride], the Ki on serotonin 2 receptor was found to be 2.35 nM; on serotonin 1A receptor, 3.28 nM.
The corresponding values for `CCN1CCN(c2nc(-c3cc(OC)ccn3)cc3ccccc23)CC1` [Example 335, 1-(4-ethylpiperazin-1-yl)-3-(4-methoxypyridin-2-yl)isoquinoline dihydrochloride] are 20.3 nM and 60.1 nM.
For `CCN1CCN(c2nc(-c3ccc([C@@H]4C[C@H](O)CCO4)cc3)cc3ccsc23)CC1` (relative stereo) [Example 454, 7-(4-Ethylpiperazin-1-yl)-5-[4-(cis-4-hydroxytetrahydropyran-2-yl)phenyl]thieno[2,3-c]pyridine dihydrochloride], the Ki on serotonin 2 receptor is 26.5 nM; at serotonin 1A receptor it was 67.4 nM.
The like results for `CCN1CCN(c2nc(-c3ccc(CC(C)CO)cc3)cc3ccsc23)CC1` (stereo not drawn) [Example 441, 7-(4-ethylpiperazin-1-yl)-5-[4-(3-hydroxy-2-methylpropyl)phenyl]thieno[2,3-c]pyridine dihydrochloride] were, in that order, 0.41 nM and 15.2 nM.
For `CCN1CCN(c2nc(-c3ccc(CCC(C)O)cc3)cc3ccsc23)CC1` (stereo not drawn) [Example 440, 7-(4-ethylpiperazin-1-yl)-5-[4-(3-hydroxybutyl)phenyl]thieno[2,3-c]pyridine dihydrochloride], the Ki on serotonin 2 receptor turned out to be 0.72 nM; on serotonin 1A receptor it was 21.8 nM.
As for `CCN1CCN(c2nc(-c3ccc(OC[C@@H](C)O)cc3)cc3ccsc23)CC1` [Example 435, 7-(4-ethylpiperazin-1-yl)-5-[4-(2-hydroxypropoxy)phenyl]thieno[2,3-c]pyridine dihydrochloride], the values for the Ki at serotonin 2 receptor and at serotonin 1A receptor were 1.14 nM and 61.2 nM, respectively.
`CCN1CCN(c2nc(-c3ccc(OCCCC#N)cc3)cc3ccccc23)CC1` [Example 53, 3-[4-(3-Cyanopropoxy)Phenyl]-1-(4-Ethylpiperazin-1-Yl)Isoquinoline Hydrochloride]: the Ki on serotonin 2 receptor came out at 1.78 nM; at serotonin 1A receptor it was 61.2 nM.
For `CCCNS(=O)(=O)c1ccc(-c2cc3ccccc3c(N3CCN(CC)CC3)n2)cc1` [Example 353, 1-(4-ethylpiperazin-1-yl)-3-[4-(N-propylsulfamoyl)phenyl]isoquinoline dihydrochloride], the results for the Ki on serotonin 2 receptor and at serotonin 1A receptor were 0.24 nM and 1.1 nM, respectively.
The like results for `CCN1CCN(c2nc(-c3ccc(OC)nc3)cc3ccccc23)CC1` [Example 344, 1-(4-ethylpiperazin-1-yl)-3-(2-methoxypyridin-5-yl)isoquinoline] were, in that order, 35.9 nM and 10.7 nM.
The corresponding values for `CCN1CCN(c2nc(-c3ccc(C#CCO)cc3)cc3sccc23)CC1` [Example 464, 4-(4-ethylpiperazin-1-yl)-6-[4-(3-hydroxy-1-propynyl)phenyl]thieno[3,2-c]pyridine pyridine] are 1.4 nM and 47.8 nM.
Regarding `CCNC(=O)Cc1ccc(-c2cc3ccccc3c(N3CCN(CC)CC3)n2)cc1` [Example 87, 3-(4-Ethylaminocarbonylmethylphenyl)-1-(4-ethylpiperazin-1-yl)isoquinoline Hydrochloride], the figures for the Ki on serotonin 2 receptor and at serotonin 1A receptor were 17 nM and 16.9 nM, respectively.
The corresponding values for `CCN1CCN(c2nc(-c3ccc(N4CCC(O)CC4)nc3)cc3ccsc23)CC1` [Example 265, 5-[2-(4-hydroxypiperidin-1-yl)pyridin-5-yl]-7-(4-ethylpiperazin-1-yl)thieno[2,3-c]pyridine Hydrochloride] are 114 nM and 9.73 nM.
The corresponding values for `CCN1CCN(c2nc(-c3ccc(CCNS(=O)(=O)CC)cc3)cc3ccccc23)CC1` [Example 79, 3-(4-Ethylsulfonylaminoethylphenyl)-1-(4-Ethylpiperazin-1-Yl)Isoquinoline Hydrochloride] are 23 nM and 5.8 nM.
As to `CCN1CCN(c2nc(-c3ccc(C(C)O)cc3)cc3ccccc23)CC1` (stereo not drawn) [Example 348, 1-(4-ethylpiperazin-1-yl)-3-[4-(1-hydroxyethyl)phenyl]isoquinoline dihydrochloride], the Ki at serotonin 2 receptor stood at 1.6 nM; at serotonin 1A receptor it was 11 nM.
For `CCN1CCN(c2nc(-c3ccc(OC)c(CCCO)c3)cc3ccccc23)CC1` [Example 34, 3-[3-(3-hydroxypropyl)-4-methoxyphenyl]-1-(4-ethylpiperazin-1-yl)isoquinoline hydrochloride], the Ki at serotonin 2 receptor amounted to 17.3 nM; on serotonin 1A receptor, 23.5 nM.
With `CCN1CCN(c2nc(/C=C/c3ccccc3OC)cc3ccccc23)CC1` [Example 195, 1-(1-Ethylpiperazin-4-Yl)-3-[Trans-2-(2-Methoxyphenyl)Ethenyl]Isoquinoline Oxalate], the Ki at serotonin 2 receptor is 37.2 nM; on serotonin 1A receptor it was 23 nM.
The like results for `CCN1CCN(c2nc(-c3ccc(C(F)CCO)cc3)cc3ccsc23)CC1` (stereo not drawn) [Example 256, 7-(1-ethylpiperazin-4-yl)-5-[4-(3-hydroxy-1-fluoropropyl)phenyl]thieno[2,3-c]pyridine Dihydrochloride] were, in that order, 19.5 nM and 9.22 nM.
On to `CCN1CCN(c2nc(CCc3ccc(OC)cc3)cc3ccccc23)CC1` [Example 106, 1-(1-Ethylpiperazin-4-yl)-3-(4-methoxyphenethyl)isoquinoline], for which the Ki on serotonin 2 receptor came to 30.6 nM; at serotonin 1A receptor, 70 nM.
The like results for `CCN1CCN(c2nc(-c3ccc(O[C@@H](C)CO)cc3)cc3ccccc23)CC1` [Example 404, 1-(4-ethylpiperazin-1-yl)-3-[4-(2-hydroxy-1-methylethoxy)phenyl]isoquinoline Dihydrochloride] were, in that order, 1.07 nM and 18.8 nM.
